# Active and inactive are the calls of the source.
# Assays:
# Format in all cases: functional
# [1] = target: Hepatocyte growth factor receptor (Homo sapiens, UniProt P08581);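 further: kinase panel profiling across the kinome, with MET as the panel member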
# [2] = target: Testis-specific serine/threonine-protein kinase 1 (Homo sapiens, UniProt Q9BXA7)
# [3] = target: MAP kinase-interacting serine/threonine-protein kinase 2 (Homo sapiens, UniProt Q9HBH9)
# [4] = target: Calcium/calmodulin-dependent protein kinase type 1 (Homo sapiens, UniProt Q14012)
# [5] = target: Cyclin-dependent kinase 9 (Homo sapiens, UniProt P50750);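 further: value from the CDK9 entry of a kinome-spanning kinase panel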
# [6] = target: Cyclin-dependent kinase 1 (Homo sapiens, UniProt P06493);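 further: Kinome-wide panel profiling, with the target listed as panel member CDC2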
# [7] = target: Lymphokine-activated killer T-cell-originated protein kinase (Homo sapiens, UniProt Q96KB5);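 further: value comes from a kinase panel screen in which TOPK was one of the panel members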
# [8] = target: MAP/microtubule affinity-regulating kinase 3 (Homo sapiens, UniProt P27448);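 further: MARK3 affinity measured as one member of a kinome panel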
# [9] = target: Protein kinase C gamma type (Homo sapiens, UniProt P05129)
# [10] = target: Mitogen-activated protein kinase 1 (Homo sapiens, UniProt P28482)
# [11] = target: Interleukin-1 receptor-associated kinase 4 (Homo sapiens, UniProt Q9NWZ3)
# [12] = target: Serine/threonine-protein kinase 3 (Homo sapiens, UniProt Q13188);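 further: measured as one member of a kinome-wide kinase panel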
# [13] = target: Megakaryocyte-associated tyrosine-protein kinase (Homo sapiens, UniProt P42679);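 further: affinity measured as one member of a kinase panel (Navigating the Kinome) against MATK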
# [14] = target: BDNF/NT-3 growth factors receptor (Homo sapiens, UniProt Q16620);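 further: NTRK2 measured as one member of a broad kinome-wide kinase profiling panel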
# [15] = target: Serine/threonine-protein kinase BRSK1 (Homo sapiens, UniProt Q8TDC3);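 further: measured within a kinome-wide kinase panel, with the target listed as KIAA1811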
# [16] = target: Receptor tyrosine-protein kinase erbB-2 (Homo sapiens, UniProt P04626); test: Navigating the Kinome. Panel member name: ERBB2
# [17] = target: Tyrosine-protein kinase Lck (Homo sapiens, UniProt P06239);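 further: lck was assayed as one member of a kinase panel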
# [18] = target: Non-receptor tyrosine-protein kinase TYK2 (Homo sapiens, UniProt P29597)
# [19] = target: Serine/threonine-protein kinase N2 (Homo sapiens, UniProt Q16513)
# [20] = target: Mitogen-activated protein kinase 9 (Homo sapiens, UniProt P45984);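 further: value from a kinome panel profiling assay, MAPK9 panel entry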
# [21] = target: MAP kinase-activated protein kinase 2 (Homo sapiens, UniProt P49137);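 further: measured as one member of a kinome-wide kinase panel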
# [22] = target: Insulin-like growth factor 1 receptor (Homo sapiens, UniProt P08069); test: Navigating the Kinome. Panel member name: IGF1R
# [23] = target: Mitogen-activated protein kinase kinase kinase kinase 4 (Homo sapiens, UniProt O95819)
# [24] = target: Tyrosine-protein kinase Srms (Homo sapiens, UniProt Q9H3Y6);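 further: SRMS measured as one member of a kinome-wide kinase profiling panel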
# [25] = target: Tyrosine-protein kinase ITK/TSK (Homo sapiens, UniProt Q08881);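 further: affinity for ITK measured as one member of a broad kinase panel profiling binding across the kinome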
# [26] = target: Tyrosine-protein kinase ABL1 (Homo sapiens, UniProt P00519)
# [27] = target: Cell division cycle 7-related protein kinase (Homo sapiens, UniProt O00311);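 further: value obtained from a kinome-wide kinase panel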
# [28] = target: Serine/threonine-protein kinase PLK4 (Homo sapiens, UniProt O00444);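 further: PLK4 measured as one member of a kinome-wide kinase profiling panel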
# [29] = target: Ribosomal protein S6 kinase beta-1 (Homo sapiens, UniProt P23443);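 further: measured as one member of a kinome-wide profiling panel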
# Aurora kinase B = Aurora kinase B (Homo sapiens, UniProt Q96GD4)
# [30] = target: 3-phosphoinositide-dependent protein kinase 1 (Homo sapiens, UniProt O15530);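 further: value comes from the Navigating the Kinome panel, PDPK1 member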
# [31] = target: High affinity nerve growth factor receptor (Homo sapiens, UniProt P04629);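 further: NTRK1 tested as one member of a kinome-wide profiling panel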
# [32] = target: Tyrosine-protein kinase Fer (Homo sapiens, UniProt P16591);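 further: FER tested as one member of a kinome panel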
# [33] = target: Tyrosine-protein kinase receptor TYRO3 (Homo sapiens, UniProt Q06418);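 further: TYRO3 value obtained as one member of a kinome-wide profiling panel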
# [34] = target: Serine/threonine-protein kinase 17A (Homo sapiens, UniProt Q9UEE5)
# [35] = target: Tyrosine-protein kinase FRK (Homo sapiens, UniProt P42685);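 further: FRK tested as one member of a kinome panel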
# [36] = target: Serine/threonine-protein kinase pim-3 (Homo sapiens, UniProt Q86V86);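 further: value obtained as one member of a broad kinase panel profiling effort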
# [37] = target: Maternal embryonic leucine zipper kinase (Homo sapiens, UniProt Q14680)
# [38] = target: 5'-AMP-activated protein kinase catalytic subunit alpha-1 (Homo sapiens, UniProt Q13131)
# [39] = target: Testis-specific serine/threonine-protein kinase 2 (Homo sapiens, UniProt Q96PF2);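 further: part of the Navigating the Kinome panel, target entry STK22B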
# [40] = target: Vascular endothelial growth factor receptor 1 (Homo sapiens, UniProt P17948);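 further: measured within a kinome-wide profiling panel, FLT1 as the panel member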
# [41] = target: Mitogen-activated protein kinase kinase kinase kinase 2 (Homo sapiens, UniProt Q12851);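 further: measured as one member of a kinome-wide kinase panel, with MAP4K2 as the panel entry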
# [42] = target: Protein kinase C delta type (Homo sapiens, UniProt Q05655)
# Insulin receptor = Insulin receptor (Homo sapiens, UniProt P06213);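 further: insulin receptor kinase tested as one member of a kinome-wide kinase panel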
# [43] = target: Serine/threonine-protein kinase PLK1 (Homo sapiens, UniProt P53350);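 further: PLK1 measured as one member of a kinome-wide profiling panel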
# [44] = target: Receptor-type tyrosine-protein kinase FLT3 (Homo sapiens, UniProt P36888);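 further: FLT3 was tested as one member of a kinome-wide kinase panel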
# [45] = target: Protein kinase C iota type (Homo sapiens, UniProt P41743);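 further: measured within a kinome-wide kinase panel, PRKCI as panel member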
# Chain of Serine/threonine-protein kinase PLK1 (P53350 whole entry): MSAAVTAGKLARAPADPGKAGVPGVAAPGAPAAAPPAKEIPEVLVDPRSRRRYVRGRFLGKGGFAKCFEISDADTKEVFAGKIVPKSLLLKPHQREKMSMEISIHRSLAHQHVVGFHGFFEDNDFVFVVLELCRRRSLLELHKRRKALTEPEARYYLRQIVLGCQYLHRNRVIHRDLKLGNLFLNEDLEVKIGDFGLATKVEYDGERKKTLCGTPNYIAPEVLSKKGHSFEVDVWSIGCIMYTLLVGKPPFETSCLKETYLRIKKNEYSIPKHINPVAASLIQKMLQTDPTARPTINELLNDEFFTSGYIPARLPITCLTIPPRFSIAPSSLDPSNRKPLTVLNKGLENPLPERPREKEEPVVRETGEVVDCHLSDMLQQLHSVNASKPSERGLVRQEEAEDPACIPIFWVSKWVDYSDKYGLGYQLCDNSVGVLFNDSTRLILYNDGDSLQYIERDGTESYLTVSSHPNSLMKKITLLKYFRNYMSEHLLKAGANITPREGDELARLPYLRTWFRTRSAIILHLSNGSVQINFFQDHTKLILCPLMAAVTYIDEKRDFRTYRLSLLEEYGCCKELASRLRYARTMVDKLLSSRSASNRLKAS
# Chain of Receptor-type tyrosine-protein kinase FLT3 (P36888 whole entry): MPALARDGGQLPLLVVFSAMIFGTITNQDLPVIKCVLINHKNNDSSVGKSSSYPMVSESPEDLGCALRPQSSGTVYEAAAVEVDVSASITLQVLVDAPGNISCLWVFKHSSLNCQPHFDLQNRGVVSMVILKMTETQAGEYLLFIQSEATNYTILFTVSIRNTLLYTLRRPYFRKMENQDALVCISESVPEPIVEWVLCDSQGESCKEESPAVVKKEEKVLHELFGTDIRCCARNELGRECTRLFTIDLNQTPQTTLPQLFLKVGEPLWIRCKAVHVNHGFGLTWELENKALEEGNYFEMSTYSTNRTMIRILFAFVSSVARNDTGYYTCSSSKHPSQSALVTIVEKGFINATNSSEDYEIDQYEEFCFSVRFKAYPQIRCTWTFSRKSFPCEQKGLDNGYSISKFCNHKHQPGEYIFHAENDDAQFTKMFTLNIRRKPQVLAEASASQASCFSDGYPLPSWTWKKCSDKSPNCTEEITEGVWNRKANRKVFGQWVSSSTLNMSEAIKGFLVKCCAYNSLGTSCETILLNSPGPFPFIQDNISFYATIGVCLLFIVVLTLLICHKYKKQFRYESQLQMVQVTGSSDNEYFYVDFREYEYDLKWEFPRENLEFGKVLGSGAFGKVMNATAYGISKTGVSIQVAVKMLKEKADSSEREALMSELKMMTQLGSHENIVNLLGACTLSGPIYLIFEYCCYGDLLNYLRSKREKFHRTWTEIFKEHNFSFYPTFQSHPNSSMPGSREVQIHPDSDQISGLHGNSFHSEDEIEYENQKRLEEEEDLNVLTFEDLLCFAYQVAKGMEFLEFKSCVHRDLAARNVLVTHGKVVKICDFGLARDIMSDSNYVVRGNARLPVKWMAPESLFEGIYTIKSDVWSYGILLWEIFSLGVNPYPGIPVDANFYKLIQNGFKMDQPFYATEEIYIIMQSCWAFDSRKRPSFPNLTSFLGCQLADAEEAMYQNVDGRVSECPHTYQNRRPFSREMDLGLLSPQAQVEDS
# Chain of Interleukin-1 receptor-associated kinase 4 (Q9NWZ3 whole entry): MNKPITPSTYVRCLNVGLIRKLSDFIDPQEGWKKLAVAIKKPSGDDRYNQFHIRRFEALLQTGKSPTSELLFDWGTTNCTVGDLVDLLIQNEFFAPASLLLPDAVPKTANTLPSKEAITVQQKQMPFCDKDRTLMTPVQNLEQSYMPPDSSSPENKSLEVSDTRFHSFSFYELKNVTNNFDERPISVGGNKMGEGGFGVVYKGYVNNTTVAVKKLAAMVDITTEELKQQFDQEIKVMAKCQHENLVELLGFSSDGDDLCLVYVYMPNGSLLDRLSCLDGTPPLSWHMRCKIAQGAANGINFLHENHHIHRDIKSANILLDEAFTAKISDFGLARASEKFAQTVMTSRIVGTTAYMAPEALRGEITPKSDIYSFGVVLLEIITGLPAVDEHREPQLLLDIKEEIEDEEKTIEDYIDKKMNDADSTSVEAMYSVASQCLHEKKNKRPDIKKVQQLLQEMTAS
# Chain of Mitogen-activated protein kinase 9 (P45984 whole entry): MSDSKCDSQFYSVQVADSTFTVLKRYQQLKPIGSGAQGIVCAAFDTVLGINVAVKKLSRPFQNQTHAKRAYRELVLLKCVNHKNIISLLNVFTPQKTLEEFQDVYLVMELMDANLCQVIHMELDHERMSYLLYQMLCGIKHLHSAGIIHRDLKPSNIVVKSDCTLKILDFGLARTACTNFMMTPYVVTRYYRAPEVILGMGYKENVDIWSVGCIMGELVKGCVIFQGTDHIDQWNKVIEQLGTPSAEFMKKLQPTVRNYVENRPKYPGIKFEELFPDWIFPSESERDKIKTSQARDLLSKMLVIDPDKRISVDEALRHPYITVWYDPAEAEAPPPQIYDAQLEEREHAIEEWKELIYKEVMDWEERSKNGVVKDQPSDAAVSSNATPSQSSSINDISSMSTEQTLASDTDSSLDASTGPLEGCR
# Chain of Aurora kinase B (Q96GD4 whole entry): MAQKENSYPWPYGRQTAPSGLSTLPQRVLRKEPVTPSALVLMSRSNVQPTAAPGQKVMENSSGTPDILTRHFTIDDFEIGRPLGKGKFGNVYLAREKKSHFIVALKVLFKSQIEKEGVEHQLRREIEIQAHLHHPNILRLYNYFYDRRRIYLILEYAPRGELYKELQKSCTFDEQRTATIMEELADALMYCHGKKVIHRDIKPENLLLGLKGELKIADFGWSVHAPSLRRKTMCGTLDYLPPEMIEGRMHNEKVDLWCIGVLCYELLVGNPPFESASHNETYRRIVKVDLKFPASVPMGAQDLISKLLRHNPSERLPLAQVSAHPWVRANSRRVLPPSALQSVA
# Chain of Maternal embryonic leucine zipper kinase (Q14680 whole entry): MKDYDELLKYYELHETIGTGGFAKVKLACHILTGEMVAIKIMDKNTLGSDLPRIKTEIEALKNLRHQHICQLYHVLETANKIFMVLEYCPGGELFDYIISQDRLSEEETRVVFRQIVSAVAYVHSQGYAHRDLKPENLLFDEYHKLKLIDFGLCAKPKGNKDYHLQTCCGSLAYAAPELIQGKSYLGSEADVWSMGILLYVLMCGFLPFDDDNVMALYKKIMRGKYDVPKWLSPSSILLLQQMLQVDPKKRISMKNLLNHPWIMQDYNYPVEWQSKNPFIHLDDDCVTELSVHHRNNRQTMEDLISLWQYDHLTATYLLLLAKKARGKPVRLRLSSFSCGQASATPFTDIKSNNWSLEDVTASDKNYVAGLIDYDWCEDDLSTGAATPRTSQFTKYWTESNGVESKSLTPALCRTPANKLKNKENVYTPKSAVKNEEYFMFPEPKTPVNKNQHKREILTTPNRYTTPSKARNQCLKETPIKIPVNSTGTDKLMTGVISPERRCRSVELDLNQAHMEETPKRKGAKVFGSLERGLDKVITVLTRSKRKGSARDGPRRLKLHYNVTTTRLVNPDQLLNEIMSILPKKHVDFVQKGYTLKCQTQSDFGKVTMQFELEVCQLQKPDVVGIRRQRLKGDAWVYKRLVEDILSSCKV
# Chain of 5'-AMP-activated protein kinase catalytic subunit alpha-1 (Q13131 whole entry): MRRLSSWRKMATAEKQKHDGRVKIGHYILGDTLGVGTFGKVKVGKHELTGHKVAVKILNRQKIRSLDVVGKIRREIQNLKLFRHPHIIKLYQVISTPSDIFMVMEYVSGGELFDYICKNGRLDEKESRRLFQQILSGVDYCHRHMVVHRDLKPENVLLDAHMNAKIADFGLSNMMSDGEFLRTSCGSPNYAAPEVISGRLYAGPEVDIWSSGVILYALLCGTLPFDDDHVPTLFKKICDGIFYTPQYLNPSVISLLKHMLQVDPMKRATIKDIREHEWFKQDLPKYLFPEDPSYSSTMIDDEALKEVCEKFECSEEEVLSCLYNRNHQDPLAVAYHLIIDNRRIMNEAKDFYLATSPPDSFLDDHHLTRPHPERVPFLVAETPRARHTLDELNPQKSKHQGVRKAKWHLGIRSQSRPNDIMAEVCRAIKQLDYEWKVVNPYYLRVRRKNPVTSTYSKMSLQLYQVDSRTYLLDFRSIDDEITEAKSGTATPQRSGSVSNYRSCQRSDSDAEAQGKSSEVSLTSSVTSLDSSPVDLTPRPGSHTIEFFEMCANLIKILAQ
# Chain of BDNF/NT-3 growth factors receptor (Q16620 whole entry): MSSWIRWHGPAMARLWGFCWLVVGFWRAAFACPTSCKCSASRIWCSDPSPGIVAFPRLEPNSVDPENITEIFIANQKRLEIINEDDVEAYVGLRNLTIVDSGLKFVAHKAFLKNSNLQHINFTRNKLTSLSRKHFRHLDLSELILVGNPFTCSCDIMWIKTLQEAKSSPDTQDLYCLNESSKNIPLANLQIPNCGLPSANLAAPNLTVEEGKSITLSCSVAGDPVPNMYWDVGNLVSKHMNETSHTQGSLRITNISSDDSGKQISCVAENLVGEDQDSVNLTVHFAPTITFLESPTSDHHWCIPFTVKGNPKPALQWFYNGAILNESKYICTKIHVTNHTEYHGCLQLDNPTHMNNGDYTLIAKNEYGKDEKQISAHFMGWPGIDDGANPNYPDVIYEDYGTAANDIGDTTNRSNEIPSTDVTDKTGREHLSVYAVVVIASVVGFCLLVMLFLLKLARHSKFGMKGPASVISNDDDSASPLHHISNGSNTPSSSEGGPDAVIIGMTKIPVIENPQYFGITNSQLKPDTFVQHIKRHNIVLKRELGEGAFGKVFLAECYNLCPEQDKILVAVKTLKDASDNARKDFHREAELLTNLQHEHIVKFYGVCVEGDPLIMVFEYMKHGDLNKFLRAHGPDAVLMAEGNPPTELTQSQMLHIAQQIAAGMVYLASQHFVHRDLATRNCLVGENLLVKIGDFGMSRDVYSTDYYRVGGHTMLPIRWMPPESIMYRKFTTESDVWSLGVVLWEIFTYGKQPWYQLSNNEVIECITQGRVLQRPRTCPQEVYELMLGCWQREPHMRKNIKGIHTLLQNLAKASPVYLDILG
compound,measurement,setting,value
NC1CCCCC1Nc1nccc(-c2c[nH]c3ncccc23)n1 (configuration not stated),Ki,[1],> 3160 nM (inactive)
same,Ki,[2],15.8 nM (active)
same,Ki,[3],126 nM (active)
same,Ki,[4],> 2000 nM (inactive)
same,Ki,[5],31.6 nM (active)
same,Ki,[6],158 nM (active)
same,Ki,[7],631 nM (active)
same,Ki,[8],158 nM (active)
same,Ki,[9],251 nM (active)
same,Ki,[10],501 nM (active)
same,Ki,[11],5.01 nM (active)
same,Ki,[12],251 nM (active)
same,Ki,[13],> 2000 nM (inactive)
same,Ki,[14],> 5010 nM (inactive)
same,Ki,[15],5010 nM (active)
same,Ki,[16],> 1580 nM (inactive)
same,Ki,[17],> 2510 nM (inactive)
same,Ki,[18],> 2000 nM (inactive)
same,Ki,[19],251 nM (active)
same,Ki,[20],> 3980 nM (inactive)
same,Ki,[21],> 7940 nM (inactive)
same,Ki,[22],> 2000 nM (inactive)
same,Ki,[23],31.6 nM (active)
same,Ki,[24],> 1580 nM (inactive)
same,Ki,[25],> 1580 nM (inactive)
same,Ki,[26],> 631 nM (inactive)
same,Ki,[27],10 nM (active)
same,Ki,[28],3160 nM (active)
same,Ki,[29],501 nM (active)
same,Ki,Aurora kinase B,1260 nM (active)
same,Ki,[30],316 nM (active)
same,Ki,[31],631 nM (active)
same,Ki,[32],1580 nM (active)
same,Ki,[33],> 2000 nM (inactive)
same,Ki,[34],794 nM (active)
same,Ki,[35],1580 nM (active)
same,Ki,[36],501 nM (active)
same,Ki,[37],100 nM (active)
same,Ki,[38],794 nM (active)
same,Ki,[39],100 nM (active)
same,Ki,[40],> 398 nM (inactive)
same,Ki,[41],79.4 nM (active)
same,Ki,[42],200 nM (active)
same,Ki,Insulin receptor,> 5010 nM (inactive)
same,Ki,[43],> 7940 nM (inactive)
same,Ki,[44],316 nM (active)
same,Ki,[45],200 nM (active)

# — ChEMBL document CHEMBL1201862, “PubChem BioAssay data set” (2004)
